One experiment concerns NIH3T3. Description: Cytotoxicity against mouse NIH/3T3 cells after 24 hrs by MTT assay. It counts as cell-based. The note with it: NIH3T3, 24 h. A general note: Tetrazolium assays rely on reduction of a dye to a coloured formazan, in cell work by metabolically active cells.
The test system of the next experiment is Escherichia coli. The experiment is described as follows: Antimicrobial activity against Escherichia coli ATCC 25922 after 18 to 24 hrs by microbroth dilution method. It counts as functional. (Dilution methods test growth across graded concentrations, often in twofold steps.)
The subject of another experiment is Fusarium culmorum. The experiment is described as follows: Antimicrobial activity against wild type Fusarium culmorum after 48 to 72 hrs by microbroth dilution method. The class given is functional.
In the next experiment the test system is Micrococcus luteus. Description: Antimicrobial activity against Micrococcus luteus NRLL B-4375 after 18 to 24 hrs by microbroth dilution method. It counts as functional.
For the next experiment, the system named is Penicillium chrysogenum. Description: Antimicrobial activity against Penicillium chrysogenum NRRL 1951 after 48 to 72 hrs by microbroth dilution method. It counts as functional.
The subject of experiment [1] is C6. The experiment is described as follows: Cytotoxicity against rat C6 cells after 24 hrs by MTT assay. The settings on record: C6, 24 h. The class given is functional, cell-based.
For another experiment, the system named is Staphylococcus aureus. Description: Antimicrobial activity against Staphylococcus aureus NRRL B-767 after 18 to 24 hrs by microbroth dilution method. It counts as functional.
Experiment [2] has as its system C6. The experiment is described as follows: Cytotoxicity against rat C6 cells assessed as cell viability at 50 ug/ml after 24 hrs by MTT assay relative to control. The class given is functional. The settings on record: C6, 24 h, read-out: Activity.
In experiment [3] the test system is C6. Description: Cytotoxicity against rat C6 cells assessed as cell viability at 12 ug/ml after 24 hrs by MTT assay relative to control. It counts as functional. The settings on record: C6, 24 h, read-out: Activity.
Experiment [4] relates to C6. The experiment is described as follows: Inhibition of DNA synthesis in rat C6 cells assessed as BrdU incorporation after 24 hrs by ELISA. It counts as functional, cell-based. (In general: Incorporation of labelled thymidine or its analogues reports DNA synthesis.)
The next experiment concerns Trichoderma harzianum. Description: Antimicrobial activity against Trichoderma harzianum NRRL 20565 after 48 to 72 hrs by microbroth dilution method. It counts as functional.
Experiment [5] deals with C6. Description: Cytotoxicity against rat C6 cells assessed as cell viability at 100 ug/ml after 24 hrs by MTT assay relative to control. The note with it: C6, 24 h, read-out: Activity. The class given is functional.
For the next experiment, the system named is Fusarium verticillioides. The experiment is described as follows: Antimicrobial activity against Fusarium moniliforme NRRL 1866 after 48 to 72 hrs by microbroth dilution method. It counts as functional.
The subject of experiment [6] is C6. Description: Cytotoxicity against rat C6 cells assessed as cell viability at 25 ug/ml after 24 hrs by MTT assay relative to control. The class given is functional. The note with it: C6, 24 h, read-out: Activity.
In a further experiment the test system is Fusarium solani. Description: Antimicrobial activity against Fusarium solani NRRL 13414 after 48 to 72 hrs by microbroth dilution method. It counts as functional.
For a further experiment, the system named is Listeria monocytogenes. The experiment is described as follows: Antimicrobial activity against Listeria monocytogenes ATCC 7644 after 18 to 24 hrs by microbroth dilution method. It counts as functional.
Experiment [7] relates to C6. Description: Cytotoxicity against rat C6 cells assessed as cell viability at 200 ug/ml after 24 hrs by MTT assay relative to control. It counts as functional. The note with it: C6, 24 h, read-out: Activity.
A further experiment deals with Candida albicans. The experiment is described as follows: Antimicrobial activity against Candida albicans ATCC 22019 after 18 to 24 hrs by microbroth dilution method. The class given is functional.
Experiment [8] has as its system C6. Description: Cytotoxicity against rat C6 cells assessed as cell viability at 6 ug/ml after 24 hrs by MTT assay relative to control. It counts as functional. The note with it: C6, 24 h, read-out: Activity.
Experiment [9] has as its system C6. The experiment is described as follows: Inhibition of DNA synthesis in rat C6 cells assessed as BrdU incorporation at IC50 after 24 hrs by ELISA. The class given is functional, cell-based.
The subject of another experiment is Pseudomonas aeruginosa. The experiment is described as follows: Antimicrobial activity against Pseudomonas aeruginosa […] after 18 to 24 hrs by microbroth dilution method. It counts as functional.
For a further experiment, the system named is Aspergillus parasiticus. The experiment is described as follows: Antimicrobial activity against Aspergillus parasiticus NRRL 465 after 48 to 72 hrs by microbroth dilution method. It counts as functional.
Another experiment concerns Bacillus subtilis. Description: Antimicrobial activity against Bacillus subtilis NRS-744 after 18 to 24 hrs by microbroth dilution method. It counts as functional.
The test system of a further experiment is Aspergillus ochraceus. Description: Antimicrobial activity against Aspergillus ochraceus NRRL 3174 after 48 to 72 hrs by microbroth dilution method. It counts as functional.

In brackets after ≈: the same amount, converted by molar mass. Activity calls are given as the source filed them. The rule behind the calls is not given here.

In the case of `COc1ccc(-c2cs/c(=N/NC(=O)CSc3nnc(C)s3)n2-c2ccccc2)cc1`, the IC50 (commonly the concentration at which inhibition is half-maximal) is 300 µg/mL (≈ 639 µM) with NIH3T3 and 18.7 µg/mL (≈ 39.8 µM) in the experiment with C6 [1]. The MIC – broadly, the least concentration at which growth counts as inhibited – in the experiment on Escherichia coli stood at 250 µg/mL (≈ 532 µM); in the experiment with Fusarium culmorum, 250 µg/mL (≈ 532 µM); with Micrococcus luteus it was 250 µg/mL (≈ 532 µM); in the experiment with Penicillium chrysogenum, 250 µg/mL (≈ 532 µM); in the experiment with Staphylococcus aureus, 250 µg/mL (≈ 532 µM); against Trichoderma harzianum it was 125 µg/mL (≈ 266 µM). In addition, the MIC in the experiment on Fusarium verticillioides, against Fusarium solani, in the experiment on Listeria monocytogenes, with Candida albicans, against Pseudomonas aeruginosa and with Aspergillus parasiticus was 250 µg/mL (≈ 532 µM) throughout. The MIC against Bacillus subtilis and with Aspergillus ochraceus was 250 µg/mL (≈ 532 µM) each time. In the experiment with C6 [2], the viability at 50 µg/mL is 31.5%. Moreover, in the experiment on C6 [3], the viability at 12 µg/mL worked out at 53.6%. Also, the inhibition result in the experiment on C6 [4] was “Dose-dependent effect”. In addition, the viability at 100 µg/mL in the experiment with C6 [5] was 25.9%. In addition, in the experiment on C6 [6], the viability at 25 µg/mL was determined as 42.6%. Further, the viability at 200 µg/mL with C6 [7] is 22.2%. The viability at 6 µg/mL in the experiment with C6 [8] came out at 57.9%. Moreover, the inhibition entry with C6 [9] is “Active”.
Turning to `O=C(CSc1nnnn1-c1ccccc1)N/N=c1/scc(-c2ccc(Br)cc2)n1-c1ccccc1`, the IC50 came out at 433 µg/mL (≈ 768 µM) in the experiment on NIH3T3 and 21 µg/mL (≈ 37.2 µM) in the experiment on C6 [1]. The MIC worked out at 250 µg/mL (≈ 443 µM) with Escherichia coli; 250 µg/mL (≈ 443 µM) with Fusarium culmorum; 250 µg/mL (≈ 443 µM) with Micrococcus luteus; 250 µg/mL (≈ 443 µM) in the experiment on Penicillium chrysogenum; 250 µg/mL (≈ 443 µM) in the experiment on Staphylococcus aureus; 125 µg/mL (≈ 221 µM) in the experiment with Trichoderma harzianum. For the same molecule, the MIC against Fusarium verticillioides worked out at 250 µg/mL (≈ 443 µM); against Fusarium solani it was 250 µg/mL (≈ 443 µM); in the experiment on Listeria monocytogenes it was 250 µg/mL (≈ 443 µM); in the experiment on Candida albicans, 125 µg/mL (≈ 221 µM); against Pseudomonas aeruginosa, 250 µg/mL (≈ 443 µM); against Aspergillus parasiticus, 250 µg/mL (≈ 443 µM). Also, the MIC against Bacillus subtilis and in the experiment on Aspergillus ochraceus was 250 µg/mL (≈ 443 µM) in each case. Besides, the viability at 50 µg/mL with C6 [2] was 32%. Moreover, the viability at 12 µg/mL with C6 [3] stood at 58.6%. Moreover, the inhibition result in the experiment on C6 [4] is “Dose-dependent effect”. Further, in the experiment on C6 [5], the viability at 100 µg/mL came to 24.3%. The viability at 25 µg/mL in the experiment with C6 [6] worked out at 47.9%. Further, in the experiment with C6 [7], the viability at 200 µg/mL turned out to be 20.4%. Besides, in the experiment with C6 [8], the viability at 6 µg/mL is 61.8%. The inhibition result with C6 [9] was “Active”.
As to `Cn1nnnc1SCC(=O)N/N=c1/scc(-c2ccc(C#N)cc2)n1-c1ccccc1`, the IC50 in the experiment on NIH3T3 was 213 µg/mL (≈ 476 µM); in the experiment on C6 [1], 23.3 µg/mL (≈ 51.9 µM). For the same molecule, the MIC against Escherichia coli worked out at 250 µg/mL (≈ 557 µM); against Fusarium culmorum, 250 µg/mL (≈ 557 µM); in the experiment with Micrococcus luteus, 250 µg/mL (≈ 557 µM); with Penicillium chrysogenum, 250 µg/mL (≈ 557 µM); in the experiment with Staphylococcus aureus, 250 µg/mL (≈ 557 µM); with Trichoderma harzianum, 125 µg/mL (≈ 279 µM). Also, the MIC with Fusarium verticillioides, against Fusarium solani, in the experiment with Listeria monocytogenes, with Candida albicans, against Pseudomonas aeruginosa and with Aspergillus parasiticus was 250 µg/mL (≈ 557 µM) in each case. Besides, the MIC came out at 500 µg/mL (≈ 1110 µM) against Bacillus subtilis and 250 µg/mL (≈ 557 µM) with Aspergillus ochraceus. In addition, the viability at 50 µg/mL in the experiment on C6 [2] was 35.6%. Moreover, in the experiment on C6 [3], the viability at 12 µg/mL stood at 53.9%. Moreover, the inhibition entry with C6 [4] is “Dose-dependent effect”. Further, the viability at 100 µg/mL in the experiment on C6 [5] stood at 30.9%. Further, the viability at 25 µg/mL with C6 [6] was found to be 43.9%. Moreover, the viability at 200 µg/mL in the experiment on C6 [7] came to 28.6%. Also, the viability at 6 µg/mL in the experiment on C6 [8] was determined as 63.5%. Moreover, the inhibition entry with C6 [9] is “Active”.
Consider `Cc1ccc(-c2cs/c(=N/NC(=O)CSc3nnc(C)s3)n2-c2ccccc2)cc1`, for which the 50% inhibitory concentration (IC50) with NIH3T3 came out at 373 µg/mL (≈ 823 µM); in the experiment with C6 [1], 25.3 µg/mL (≈ 55.8 µM). Besides, the MIC was found to be 250 µg/mL (≈ 551 µM) in the experiment on Escherichia coli; 250 µg/mL (≈ 551 µM) against Fusarium culmorum; 250 µg/mL (≈ 551 µM) in the experiment on Micrococcus luteus; 250 µg/mL (≈ 551 µM) against Penicillium chrysogenum; 500 µg/mL (≈ 1100 µM) with Staphylococcus aureus; 250 µg/mL (≈ 551 µM) with Trichoderma harzianum. Moreover, the MIC in the experiment with Fusarium verticillioides, against Fusarium solani, in the experiment with Listeria monocytogenes, in the experiment on Candida albicans, with Pseudomonas aeruginosa and in the experiment with Aspergillus parasiticus was 250 µg/mL (≈ 551 µM) in each case. The MIC against Bacillus subtilis was found to be 500 µg/mL (≈ 1100 µM); against Aspergillus ochraceus, 250 µg/mL (≈ 551 µM). Moreover, the viability at 50 µg/mL in the experiment with C6 [2] stood at 40.6%. In addition, the viability at 12 µg/mL with C6 [3] stood at 58.3%. For the same molecule, the inhibition entry in the experiment with C6 [4] is “Dose-dependent effect”. Also, the viability at 100 µg/mL with C6 [5] was found to be 31.5%. In addition, in the experiment with C6 [6], the viability at 25 µg/mL is 50.1%. Further, the viability at 200 µg/mL with C6 [7] came out at 13.3%. For the same molecule, in the experiment on C6 [8], the viability at 6 µg/mL was found to be 65.9%. Besides, in the experiment on C6 [9], the inhibition entry is “Active”.
Take `Cc1nnc(SCC(=O)N/N=c2/scc(-c3ccc(F)cc3)n2-c2ccccc2)s1`: the results for the IC50 in the experiment on NIH3T3 and in the experiment with C6 [1] were 383 µg/mL (≈ 838 µM) and 27.3 µg/mL (≈ 59.7 µM), respectively. The MIC in the experiment on Escherichia coli turned out to be 250 µg/mL (≈ 546 µM); against Fusarium culmorum, 250 µg/mL (≈ 546 µM); in the experiment on Micrococcus luteus, 250 µg/mL (≈ 546 µM); against Penicillium chrysogenum, 250 µg/mL (≈ 546 µM); in the experiment on Staphylococcus aureus it was 250 µg/mL (≈ 546 µM); against Trichoderma harzianum it was 125 µg/mL (≈ 273 µM). Moreover, the MIC in the experiment with Fusarium verticillioides, in the experiment with Fusarium solani, against Listeria monocytogenes, against Candida albicans, in the experiment with Pseudomonas aeruginosa and with Aspergillus parasiticus was 250 µg/mL (≈ 546 µM) throughout. Moreover, the MIC against Bacillus subtilis and in the experiment on Aspergillus ochraceus was 250 µg/mL (≈ 546 µM) in each case. In addition, the viability at 50 µg/mL with C6 [2] worked out at 37.4%. Also, the viability at 12 µg/mL with C6 [3] is 73.7%. In addition, the inhibition entry with C6 [4] was “Dose-dependent effect”. Besides, the viability at 100 µg/mL with C6 [5] was 34.9%. In the experiment with C6 [6], the viability at 25 µg/mL was found to be 50.1%. Besides, in the experiment with C6 [7], the viability at 200 µg/mL amounted to 26.5%. Also, the viability at 6 µg/mL with C6 [8] amounted to 74.3%. For the same molecule, the inhibition entry with C6 [9] was “Active”.

(Values after ChEMBL document CHEMBL3124777, “Synthesis and biological evaluation of thiazoline derivatives as new antimicrobial and anticancer agents” (Eur J Med Chem, 2014).)
